# Test results from patent US9526680B2, “Method for searching for malodor control agent, malodor control agent, and malodor control method” (Kao Corporation, priority 2010, dated 2016).
# “Also recorded” adds a separate entry of the source.
# Legend:
# Format in all cases: cell-based
# [1] = target: T1, OR2W1 (Homo sapiens, UniProt Q9Y3N9); test: Luciferase reporter gene assay, OR2W1 expressed in HEK293 cells; details: for Response of OR2W1 to the odor substance: fold increase of luciferase emission, 1 mM hexanoic acid or 300 μM nonanoic acid, or concentration series up to 1000 μM
# T1 construct: expressed in transfected cells; host or cells: HEK293
# T1 sequence (Q9Y3N9 1-320): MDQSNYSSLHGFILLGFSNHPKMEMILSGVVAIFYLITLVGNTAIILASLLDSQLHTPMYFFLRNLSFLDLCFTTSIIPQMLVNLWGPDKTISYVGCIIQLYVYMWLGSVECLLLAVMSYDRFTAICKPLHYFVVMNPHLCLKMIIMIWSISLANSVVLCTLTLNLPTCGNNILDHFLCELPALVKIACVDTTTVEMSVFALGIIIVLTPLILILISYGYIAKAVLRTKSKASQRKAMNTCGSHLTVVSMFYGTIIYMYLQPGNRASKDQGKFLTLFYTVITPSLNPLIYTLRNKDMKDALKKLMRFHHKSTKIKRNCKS
# Method: (§1) Cloning of human olfactory receptors was performed based on the sequence information registered in GenBank, through PCR with human genomic DNA female (G1521: Promega) as a template. Each of the genes amplified through PCR was inserted into a pENTR vector (Invitrogen) according to an instruction manual. Then, the gene-inserted vector was digested with NotI and AscI, and the obtained fragments were inserted into NotI and AscI sites located downstream of the Flag-Rho tag sequence in the pME18S vector.
# (§2) Each of the 350 types of human olfactory receptors was expressed in HEK293 cells. A reaction solution having a composition shown in Table 2 was prepared on a clean bench, and left to stand for 15 minutes. The solution was dispensed to each well of a 96-well plate (BD). Subsequently, […] cells (100 μL, 3×10^5 cells/cm^2) were seeded in each well and cultured for 24 hours in an incubator at 37° C. and under 5% CO2 conditions.
# (§3) The olfactory receptor expressed in HEK293 cell was conjugated with cell-intrinsic Gas to activate adenylate cyclase, and thereby the level of intracellular cAMP was increased. For the measurement of the response to odor in this study, the luciferase reporter gene assay was used, in which an increase in the amount of intracellular cAMP was monitored by using the emission value originating from firefly luciferase gene (fluc2P-CRE-hygro) as an indicator. Furthermore, a gene product obtained by fusing renilla luciferase gene in the downstream of CMV promoter (hRluc-CMV) was simultaneously introduced, and this was used as an internal standard for correcting an error in the transgenesis efficiency or the number of cells. The medium was removed from the culture prepared in the above-described section 3) by using a Pipetman, and 75 μl of a solution containing an odor substance (1 mM hexanoic acid or 300 μM nonanoic acid) prepared in CD293 medium (Invitrogen) was added thereto. The cells were cultured for 4 hours in a CO2 incubator, and the luciferase gene was sufficiently expressed in the cells. For the measurement of luciferase activity, the measurement was carried out by using a Dual-Glo™ luciferase assay system (Promega) according to the operation manual of the product. A value calculated by dividing the emission value, derived from a firefly luciferase induced by the stimulation with an odor substance, by the emission value in cells that were not-stimulated with an odor substance, was designated as a fold increase, and used as an index of response intensity.
# (§4) OR2W1, OR10A6, OR51E1, OR51I2, and OR51L1 were respectively expressed in HEK293 cells by the same method as that used in Example 1, and a luciferase assay was carried out. In the luciferase assay, hexanoic acid was used as the odorous substance, and test substances were added together with hexanoic acid. The response of the olfactory receptors to hexanoic acid was measured, and a decrease in the receptor response to the addition of test substances was evaluated.
# (§5) The inhibition ratios of the receptor response to test substances were calculated as follows. The emission value (Y) obtained from the cells in which the same receptors were introduced but no odor stimulation was conducted, was subtracted from the emission value derived from firefly luciferase (X) induced by odor stimulation with hexanoic acid alone. Similarly, the emission value (Y) obtained from the cells in which no odor stimulation was conducted, was subtracted from the emission value (Z) caused by stimulation with a mixture of hexanoic acid and a test substance. By the following calculation formula, the inhibitory activity of the test substance to receptor response was calculated based on the increment of the emission value (X−Y) caused by stimulation of hexanoic acid alone. Multiple independent experiments were performed in duplicate, and the average of each experiment was obtained. Inhibition ratio (%)={1−(Z−Y)/(X−Y)}×100 […]
# [2] = target: T2, OR51E1 (Homo sapiens, UniProt Q8TCB6); test: Luciferase reporter gene assay, OR51E1 expressed in HEK293 cells; details: for Response of OR51E1 to the odor substance: fold increase of luciferase emission, 1 mM hexanoic acid or 300 μM nonanoic acid, or concentration series up to 1000 μM
# T2 construct: expressed in transfected cells; host or cells: HEK293
# T2 sequence (Q8TCB6 1-318): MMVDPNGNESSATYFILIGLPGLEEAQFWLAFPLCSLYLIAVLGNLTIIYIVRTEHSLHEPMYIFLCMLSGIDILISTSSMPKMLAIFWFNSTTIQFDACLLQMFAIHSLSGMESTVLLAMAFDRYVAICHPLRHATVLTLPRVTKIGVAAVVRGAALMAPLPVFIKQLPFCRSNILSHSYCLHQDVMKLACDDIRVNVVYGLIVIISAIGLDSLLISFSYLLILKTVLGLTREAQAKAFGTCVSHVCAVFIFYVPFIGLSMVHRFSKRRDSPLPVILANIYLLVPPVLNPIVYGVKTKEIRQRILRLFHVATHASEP
# Method: as §1, §2, §3, §4, §5
# [3] = target: T3, OR51L1 (Homo sapiens, UniProt Q8NGJ5); test: Luciferase reporter gene assay, OR51L1 expressed in HEK293 cells; details: for Response of OR51L1 to the odor substance: fold increase of luciferase emission, 1 mM hexanoic acid or 300 μM nonanoic acid, or concentration series up to 1000 μM
# T3 construct: expressed in transfected cells; host or cells: HEK293
# T3 sequence (Q8NGJ5 1-315): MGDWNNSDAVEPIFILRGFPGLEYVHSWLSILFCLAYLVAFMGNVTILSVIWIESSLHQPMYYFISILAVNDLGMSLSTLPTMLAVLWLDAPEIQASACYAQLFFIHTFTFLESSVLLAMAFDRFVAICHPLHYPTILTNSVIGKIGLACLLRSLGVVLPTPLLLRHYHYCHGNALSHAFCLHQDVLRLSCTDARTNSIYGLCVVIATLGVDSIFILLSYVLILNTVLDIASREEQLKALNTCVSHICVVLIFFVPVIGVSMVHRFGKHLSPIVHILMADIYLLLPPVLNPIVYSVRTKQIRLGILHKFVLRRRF
# Method: as §1, §2, §3, §4, §5
# [4] = target: T4, OR51I2 (Homo sapiens, UniProt Q9H344); test: Luciferase reporter gene assay, OR51I2 expressed in HEK293 cells; details: for Response of OR51I2 to the odor substance: fold increase of luciferase emission, 1 mM hexanoic acid or 300 μM nonanoic acid, or concentration series up to 1000 μM
# T4 construct: expressed in transfected cells; host or cells: HEK293
# T4 sequence (Q9H344 1-312): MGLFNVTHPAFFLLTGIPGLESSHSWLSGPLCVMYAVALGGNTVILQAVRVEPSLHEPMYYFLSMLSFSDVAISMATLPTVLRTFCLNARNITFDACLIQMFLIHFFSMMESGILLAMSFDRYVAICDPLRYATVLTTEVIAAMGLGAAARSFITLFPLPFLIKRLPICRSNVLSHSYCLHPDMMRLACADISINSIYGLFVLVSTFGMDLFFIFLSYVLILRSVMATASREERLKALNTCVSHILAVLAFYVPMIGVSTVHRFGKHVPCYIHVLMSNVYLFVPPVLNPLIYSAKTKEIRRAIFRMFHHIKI
# Method: as §1, §2, §3, §4, §5
# [5] = target: T5, OR10A6 (Homo sapiens, UniProt Q8NH74); test: Luciferase reporter gene assay, OR10A6 expressed in HEK293 cells; details: for Response of OR10A6 to the odor substance: fold increase of luciferase emission, 1 mM hexanoic acid or 300 μM nonanoic acid, or concentration series up to 1000 μM
# T5 construct: expressed in transfected cells; host or cells: HEK293
# T5 sequence (Q8NH74 1-314): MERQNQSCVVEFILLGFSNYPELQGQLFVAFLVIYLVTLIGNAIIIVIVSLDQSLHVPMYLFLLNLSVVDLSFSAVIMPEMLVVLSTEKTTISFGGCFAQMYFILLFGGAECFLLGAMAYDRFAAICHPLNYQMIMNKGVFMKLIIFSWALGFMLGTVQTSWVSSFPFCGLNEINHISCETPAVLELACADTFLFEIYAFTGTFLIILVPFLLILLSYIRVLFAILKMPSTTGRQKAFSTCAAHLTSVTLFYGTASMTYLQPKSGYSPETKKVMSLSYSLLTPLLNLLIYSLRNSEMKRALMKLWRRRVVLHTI
# Method: as §1, §2, §3, §4
# The inhibition ratios of the receptor response to test substances were calculated as follows. The emission value (Y) obtained from the cells in which the same receptors were introduced but no odor stimulation was conducted, was subtracted from the emission value derived from firefly luciferase (X) induced by odor stimulation with hexanoic acid alone. Similarly, the emission value (Y) obtained from the cells in which no odor stimulation was conducted, was subtracted from the emission value (Z) caused by stimulation with a mixture of hexanoic acid and a test substance. By the following calculation formula, the inhibitory activity of the test substance to receptor response was calculated based on the increment of the emission value (X−Y) caused by stimulation of hexanoic acid alone. Multiple independent experiments were performed in duplicate, and the average of each experiment was obtained. Inhibition ratio (%)={1−(Z−Y)/(X−Y)}×100
# [6] = 1 mM hexanoic acid, test substance 3, 10, 30, 100, 300 μM (FIG. 4)
Molecule,"Inhibition of OR2W1 response to hexanoic acid (in words) [1, 6]","Inhibition of OR51E1 response to hexanoic acid (in words) [2, 6]","Inhibition of OR51L1 response to hexanoic acid (in words) [3, 6]","Inhibition of OR51I2 response to hexanoic acid (in words) [4, 6]",Inhibition of OR10A6 response (in words) [5],Response of OR2W1 to the odor substance [1],Response of OR51E1 to the odor substance [2],Response of OR51L1 to the odor substance [3],Response of OR51I2 to the odor substance [4],Response of OR10A6 to the odor substance [5]
"CC1=CC(C)C(CO)CC1 (stereo not drawn) [floralol, reference compound]",no response inhibiting effect,no response inhibiting effect,no response inhibiting effect,no response inhibiting effect,no response inhibiting effect,–,–,–,–,–
"CCCCCC(=O)O [hexanoic acid, reference compound]",–,–,–,–,–,exhibited response; also recorded: concentration-dependent response,exhibited response; also recorded: concentration-dependent response,exhibited response; also recorded: concentration-dependent response,exhibited response; also recorded: concentration-dependent response,exhibited response; also recorded: concentration-dependent response
"CCCCCCCCC(=O)O [nonanoic acid, reference compound]",–,–,–,–,–,exhibited response,exhibited response,–,–,exhibited response
cresol [reference compound],–,–,–,–,–,do not respond,do not respond,do not respond,do not respond,do not respond
